Data as given in US8952025B2, “Multifunctional radical quenchers and their uses” (Arizona Board of Regents, A Body Corporate of the State of …, priority 2010, dated 2015).

Assays:
cultured FRDA cells = experiment: Cytoprotection of cultured FRDA cells depleted of glutathione; type: cell-based; details: pretreated then depleted of glutathione, read-out: Viable Cells (%)
Source text: The cells were pretreated with the compounds and then depleted of glutathione. The cell viability is expressed as percentage of total number of cells.

[1] = system: NADH oxidase, bovine heart mitochondrial complex (I, III, IV); experiment: NADH oxidase inhibition assay, submitochondrial particles; type: biochemical; details: for NADH oxidase activity (%): percentage of control; for IC50: beef heart SMP
Description: Beef heart mitochondria were obtained by a large-scale procedure. Inverted submitochondrial particles (SMP) were prepared by the method of Matsuno-Yagi and Hatefi (J. Biol. Chem. 260 (1985), p. 14424), and stored in a buffer containing 0.25 M sucrose and 10 mM Tris-HCl (pH 7.4) at −80° C. Inhibitory effects of compounds on bovine heart mitochondrial complex (I, III, IV) were evaluated. Maximal dimethyl sulfoxide concentration never exceeded 2% and had no influence on the control enzymatic activity. Beef heart SMP were diluted to 0.5 mg/mL. The enzymatic activities were assayed at 30° C. and monitored spectrophotometrically with a Beckman Coulter DU-530 (340 nm, c=6.22 mM^−1 cm^−1). NADH oxidase activity was determined in a reaction medium (2.5 mL) containing 50 mM Hepes, pH 7.5, containing 5 mM MgCl2. The final mitochondrial protein concentration was 30 μg. After the pre-equilibration of SMP with inhibitor for 5 min, the initial rates were calculated from the linear portion of the traces.
The activity is expressed as percentage of control.

CEM cells = experiment: Reactive oxygen species (ROS) assay, DCFH-DA, DEM-treated cells; type: cell-based, human; details: compound 1 μM, 5 mM DEM
Source text: Cellular ROS production can be monitored using 2′,7′-dichlorodihydrofluorescein diacetate (DCFH-DA) (LeBel et al. (1992) Chem. Res. Toxicol. 5, 227-231) (Molecular Probes, Eugene, Oreg., USA), a membrane permeable and oxidant-sensitive fluorescent dye. DCFH-DA is a non-fluorescent derivative of fluorescein that emits fluorescence after being oxidized by hydrogen peroxide and other ROS. The emitted fluorescence is directly proportional to the concentration of hydrogen peroxide. DCFH-DA is nonionic and nonpolar and is easily taken up by cells. Once inside the cell, DCFH-DA is hydrolyzed by cellular esterases to non-fluorescent DCFH which traps the dye in the cell. In the presence of ROS including hydrogen peroxide, DCFH is oxidized to the highly fluorescent compound dichlorofluorescein (DCF). The intracellular DCF fluorescence is used as an index of cellular ROS production.
Cellular oxidative stress was induced by pharmacological depletion of glutathione (GSH) using the chemical diethylmaleate (DEM). ROS production was assessed by monitoring DCF fluorescence. Leukemic CEM cells (ATCC®, catalogue number CRL-2264) were cultured in RPMI (GIBCO, Grand island, N.Y., USA) with 10% FCS, 2 mM glutamine (HyClone, South Logan, Utah, USA) and 1% penicillin-streptomycin mix antibiotics (Cellgro, Manassan, Va., USA) supplements. Cells were maintained in the log phase at a concentration of between 1×10^5 and 1×10^6 cells/mL. CEM cells (1×10^6 cell/mL) were plated (1 mL) in twelve well plate and treated with the invention compounds (final concentration 1 and 5 μM), and incubated for two hours at 37° C., 5% CO2. The compounds tested were prepared by first making stock solutions (2.5 mM) in dimethylsulfoxide (DMSO). Cells were treated with 5 mM DEM for 30 minutes and collected by centrifugation at 300×g for 3 min and then washed twice with Hanks' Balanced Salt Solution (HSSB) buffer (Sigma, St. Louis, Mo. USA). Cells were resuspended in HSSB buffer+10 mM glucose and incubated at 37° C. in the dark for 20 min with 10 μM DCFH-DA. Cells were collected by centrifugation at 300×g for 3 min and then washed twice with HSSB buffer. The samples were analyzed immediately by flow cytometry (Becton-Dickinson FACS Caliber), (Cell Quest software, BD Biosciences) using 488 nm excitation laser and FL1-H channel 538 nm emission filter. In each analysis, 10,000 events were recorded after cell debris were electronically gated out. Results obtained were verified by repeating experiments N=3 independent experiments. Authentic hydrogen peroxide was used as a positive control.

Structure (SMILES) | NADH oxidase activity (%) ([1]; 1 μM) | NADH oxidase activity (%) ([1]; 2.5 μM) | NADH oxidase activity (%) ([1]; 5 μM) | NADH oxidase activity (%) ([1]; 10 μM) | also measured
CCCCCCCCCCc1nc(N(C)C)nc(C)c1O [drawing 128] | – | – | – | – | viability at 0.1 µM (cultured FRDA cells): 54.5 ± 3.3%; viability at 0.5 µM (cultured FRDA cells): 84 ± 3.6%; viability at 2.5 µM (cultured FRDA cells): 76.3 ± 5%
CCCCCCCCCCCCCCCCc1nc(N(C)C)nc(C)c1O [drawing 129] | – | – | – | – | viability at 0.1 µM (cultured FRDA cells): 61.3 ± 2.9%; viability at 0.5 µM (cultured FRDA cells): 84.4 ± 3.4%; viability at 2.5 µM (cultured FRDA cells): 88 ± 1%
CCCCCCCCCCc1nc(N(C)C)nc(OC)c1O [drawing 130] | – | – | – | – | viability at 0.1 µM (cultured FRDA cells): 40.3 ± 1.5%; viability at 0.5 µM (cultured FRDA cells): 83.7 ± 1.5%; viability at 2.5 µM (cultured FRDA cells): 82.7 ± 2.5%
CCCCCCCCCCCCCCCCc1nc(N(C)C)nc(OC)c1O [drawing 131] | – | – | – | – | viability at 0.1 µM (cultured FRDA cells): 43.7 ± 3.1%; viability at 0.5 µM (cultured FRDA cells): 66.3 ± 1.5%; viability at 2.5 µM (cultured FRDA cells): 80.5 ± 5%
CCCCCc1nc(N(C)C)nc(C)c1O [drawing 132] | 85 | – | – | – | –
CCCCCCCCCCc1nc(N(C)C)nc(C)c1O [drawing 133] | 40 | – | – | – | IC50 [1]: 829 nM
Cc1nc(N(C)C)nc(CCCCCCCCCCO)c1O [drawing 134] | 50 | 42 | 22 | 15 | IC50 [1]: 2230 nM
Cc1nc2c(c(CC[C@](C)(O)CCC[C@H](C)CCC[C@H](C)CCCC(C)C)c1O)CCN2C [drawing 136] | 50 | 50 | – | 15 | –
Cc1cc(N(C)C)nc(CCCCCCCCCCO)c1O [drawing 137] | 90 | 58 | 38 | 20 | –
COc1nc(N(C)C)nc(CCCCCCCCCCO)c1O [drawing 138] | 62.5 | 40 | 50 | 25 | –
CCCCCCCCCCCCCCCCc1nc(N(C)C)nc(C)c1O [drawing 139] | 62 | 62 | 62 | 62 | –
CCCCCCCCCCCCCCCCc1nc(N(C)C)nc(OC)c1O [drawing 140] | 90 | 70 | 70 | 70 | –
CCCCCCCCCCc1nc(N(C)C)nc(OC)c1O [drawing 141] | 38 | – | 38 | 10 | –
COc1c(O)c(C)c(CCCCCCCCCCO)c(O)c1OC [idebenol, reference compound] | – | – | – | – | protection against ROS production (DCF fluorescence) (CEM cells): less effective at this concentration
